In ChEMBL document CHEMBL5137030 (Eur J Med Chem, 2022):
Activity calls are given as the source filed them. The rule behind the calls is not given here.

Key:
Human alphaherpesvirus 2 [1] = experiment: Antiviral activity against HSV-2 333vhsB infected in African green monkey Vero cells assessed as inhibition of viral replication by measuring reduction in virus-induced cytopathic effect at 50 uM incubated for 20 hrs by colorimetric analysis; type: functional, organism-based
Human alphaherpesvirus 2 [2] = experiment: (§1) Antiviral activity against HSV-2 infected in African green monkey Vero cells assessed as inhibition of viral replication by measuring log suppression of virus-induced cytopathic effect at 1 uM incubated for 1 hr followed by washing with PBS and subsequent treatment with compound for 24 hrs by plaque assay; type: functional; settings: time 25 hrs
Human alphaherpesvirus 2 [3] = experiment: as §1, with “at 5” for “at 1”; type: functional; settings: time 25 hrs
[4] = Cytotoxicity against human HepDES19 cells assessed as reduction in cell viability incubated for 72 hrs by MTS assay; type: toxicity, cell-based; settings: hepdes19, 72 h
[5] = Apparent permeability of the compound across apical to basolateral side in human Caco-2 cells at 10 uM incubated for 2 hrs; type: ADME, cell-based; settings: caco-2, 2 h
Vero = experiment: Cytotoxicity against African green monkey Vero cells assessed as reduction in cell viability incubated for 24 hrs by MTS assay; settings: chlorocebus sabaeus
[6] = Half life in human liver microsomes at 2 uM in presence of NADPH by LC/MS/MS analysis; type: ADME, Microsome
Human alphaherpesvirus 2 [7] = experiment: Antiviral activity against HSV-2 infected in African green monkey Vero cells assessed as inhibition of viral replication incubated for 1 hr followed by washing with PBS and subsequent treatment with compound for 24 hrs by plaque reduction assay; type: functional, organism-based; settings: Human alphaherpesvirus 2, Vero
[8] = Half life in mouse liver microsomes at 2 uM in presence of NADPH by LC/MS/MS analysis; type: ADME, Microsome
Human alphaherpesvirus 1 [9] = experiment: Antiviral activity against HSV-1 infected in African green monkey Vero cells assessed as inhibition of viral replication incubated for 1 hr followed by washing with PBS and subsequent treatment with compound for 24 hrs by plaque reduction assay; type: functional, organism-based; settings: Human alphaherpesvirus 1, Vero
[10] = Oral bioavailability in BALB/c mouse at 3 mg/kg by LC/MS/MS analysis; type: ADME, organism-based; settings: in vivo
Human alphaherpesvirus 1 [11] = experiment: as §1, with “against HSV-1” for “against HSV-2”, “at 5” for “at 1”; type: functional; settings: time 25 hrs
Human alphaherpesvirus 1 [12] = experiment: as §1, with “HSV-1” for “HSV-2”; type: functional; settings: time 25 hrs
[13] = Half-life in BALB/c mouse at 3 mg/kg, po and 1 mg/kg, iv by LC/MS/MS analysis; type: ADME, organism-based; settings: in vivo
Human alphaherpesvirus 2 [14] = experiment: Antiviral activity against wild-type HSV-2 186 infected in African green monkey Vero cells assessed as inhibition of viral replication incubated for 1 hr followed by washing with PBS and subsequent treatment with compound for 24 hrs by plaque reduction assay; type: functional, organism-based; settings: Human alphaherpesvirus 2, 186, Vero
Human alphaherpesvirus 2 [15] = experiment: Antiviral activity against thymidine kinase-deficient ACV-resistant HSV-2 186 TKdeltakpn infected in African green monkey Vero cells assessed as inhibition of viral replication incubated for 1 hr followed by washing with PBS and subsequent treatment with compound for 24 hrs by plaque reduction assay; type: functional, organism-based; settings: Human alphaherpesvirus 2, 186 TKdeltakpn

Structure (SMILES) | Activity (Human alphaherpesvirus 2 [1]) | log(activity) (Human alphaherpesvirus 2 [2]) | log(activity) (Human alphaherpesvirus 2 [3]) | CC50 [4] | EC50 (Human alphaherpesvirus 2 [7]) | further results
O=c1cc(Cc2ccccc2)cc(CC2CCCCC2)n1O | Active | 2.39 | 4.83 | – | – | –
O=c1c2ccccc2cc(-c2ccccc2)n1O | Active | 0.01 | 4.04 | – | – | –
Cc1cc(Cc2cccc(Cl)c2)n(O)c(=O)c1 | Active | 1.82 | 4 | – | – | –
Cc1cc(C2CCOCC2)n(O)c(=O)c1 | Active | -0.23 | 0.09 | – | – | –
O=c1cc(Cc2ccccc2)cc(Cc2ccccc2)n1O | Active | 0.29 | 4.7 | – | – | –
O=c1cc(-c2ccccc2)ccn1O | Active | 0.05 | 0.02 | – | – | –
Cc1cc2ccccc2c(=O)n1O | Active | 0.01 | 0.28 | – | – | –
O=c1ccc(C2CCCCC2)cn1O | Active | 0.67 | 3.62 | – | – | –
Cc1cc(C2CCC2)n(O)c(=O)c1 | Active | 0.26 | 1.45 | – | – | –
COc1cccc(Cc2cc(C)cc(=O)n2O)c1 | Active | 2.15 | 4.57 | 60000 nM | 270 nM | Papp [5]: 2.43 10^-7 cm/s; CC50 (Vero): > 100000 nM; t1/2 [6]: 19 min; t1/2 [8]: 15 min
Cc1cc(C2CCCC2)n(O)c(=O)c1 | Active | 0.37 | 2.38 | – | – | –
O=c1cccc(Cc2ccccc2)n1O | Active | 0.34 | 2.75 | – | – | –
O=c1c2ccccc2cc(C2CCCCC2)n1O | Active | 1.01 | 4.48 | – | – | –
Cc1cc(Cc2ccc(Cl)cc2)n(O)c(=O)c1 | Active | 3.16 | 4.4 | 26000 nM | 310 nM | EC50 (Human alphaherpesvirus 1 [9]): 160 nM; bioavailability [10]: 10%; log(activity) (Human alphaherpesvirus 1 [11]): 4.27; log(activity) (Human alphaherpesvirus 1 [12]): 2.44; t1/2 [13]: < 60 min
O=c1ccc(-c2ccccc2)cn1O [1-HYDROXY-5-PHENYLPYRIDIN-2(1H)-ONE] | Active | -0.03 | 0 | – | – | –
O=c1cc(-c2ccccc2)cc(C2CCCCC2)n1O | Active | 3.73 | 4.08 | 20000 nM | 290 nM | EC50 (Human alphaherpesvirus 2 [14]): < 300 nM; Papp [5]: 4.33 10^-6 cm/s; t1/2 [6]: < 5 min; bioavailability [10]: 10%; log(activity) (Human alphaherpesvirus 1 [11]): 5.37; log(activity) (Human alphaherpesvirus 1 [12]): 3.43; t1/2 [13]: < 60 min; t1/2 [8]: < 5 min; EC50 (Human alphaherpesvirus 2 [15]): < 300 nM
O=c1cc(-c2ccccc2)cc(CC2CCCCC2)n1O | Active | 4.84 | 5.29 | 20000 nM | 390 nM | Papp [5]: 2.75 10^-6 cm/s; t1/2 [6]: < 5 min; t1/2 [8]: < 5 min
Cc1cc(Cc2ccc3ccccc3c2)n(O)c(=O)c1 | Active | 1.34 | 3.63 | – | – | –
O=c1cc(/C=C/c2ccccc2)cc(Cc2ccccc2)n1O | Active | 1.46 | 4.62 | – | – | –
Cc1cc(Cc2ccccc2Cl)n(O)c(=O)c1 | Active | 2.46 | 4.3 | – | – | –
Cc1cc(Cc2ccccc2-c2ccccc2)n(O)c(=O)c1 | Active | 3.17 | 4.49 | 14000 nM | 160 nM | Papp [5]: 2.03 10^-7 cm/s; t1/2 [6]: < 5 min; t1/2 [8]: < 5 min

Structure (SMILES) | Activity (Human alphaherpesvirus 2 [1]) | log(activity) (Human alphaherpesvirus 2 [2]) | log(activity) (Human alphaherpesvirus 2 [3]) | CC50 [4] | EC50 (Human alphaherpesvirus 2 [7]) | further results
Cc1cc(CC2CCCCC2)n(O)c(=O)c1 | Active | 4.19 | 4.9 | 28000 nM | 260 nM | Papp [5]: 3.14 10^-5cm/s; t1/2 [6]: < 5 min; bioavailability [10]: 10%; log(activity) (Human alphaherpesvirus 1 [11]): 4.43; log(activity) (Human alphaherpesvirus 1 [12]): 3.98; t1/2 [13]: < 60 min; t1/2 [8]: < 5 min
O=c1cccc(C2CCCCC2)n1O | Active | 1.23 | 5.01 | 22000 nM | 550 nM | –
Nc1nc2c(ncn2COCCO)c(=O)[nH]1 [ACYCLOVIR] | – | 1.79 | 2.9 | – | – | log(activity) (Human alphaherpesvirus 1 [11]): 3.36; log(activity) (Human alphaherpesvirus 1 [12]): 2.42
Cc1cc(Cc2ccccc2)n(O)c(=O)c1 | Active | 1.59 | 5.79 | 42000 nM | 230 nM | Papp [5]: 1.44 10^-5cm/s; CC50 (Vero): > 100000 nM; t1/2 [6]: 6 min; log(activity) (Human alphaherpesvirus 1 [11]): 4.71; log(activity) (Human alphaherpesvirus 1 [12]): 1.07; t1/2 [8]: < 5 min
Cc1ccc(-c2cc(CC3CCCCC3)n(O)c(=O)c2)cc1 | Active | 0.02 | 0.34 | – | – | –
COc1ccccc1Cc1cc(C)cc(=O)n1O | Active | 1.02 | 3.9 | – | – | –
O=c1cc(/C=C/c2ccccc2)cc(CC2CCCCC2)n1O | Active | 4.95 | 4.77 | 20000 nM | 270 nM | log(activity) (Human alphaherpesvirus 1 [11]): 4.42; log(activity) (Human alphaherpesvirus 1 [12]): 4.33
Cc1ccccc1-c1cc(CC2CCCCC2)n(O)c(=O)c1 | Active | 0.14 | 5.65 | – | – | –
Cc1cccc(-c2cc(CC3CCCCC3)n(O)c(=O)c2)c1 | Active | 3.26 | 3.95 | 16000 nM | 310 nM | log(activity) (Human alphaherpesvirus 1 [11]): 4.59; log(activity) (Human alphaherpesvirus 1 [12]): 4.22
O=c1c2ccccc2cc(Cc2ccccc2)n1O | Active | 0.73 | 4.03 | – | – | –
O=c1c2ccccc2cc(CC2CCCCC2)n1O | Active | 2.68 | 4.77 | 49000 nM | 280 nM | EC50 (Human alphaherpesvirus 1 [9]): 240 nM; log(activity) (Human alphaherpesvirus 1 [11]): 4.32; log(activity) (Human alphaherpesvirus 1 [12]): 4.16
O=c1ccc(Cc2ccccc2)cn1O | Active | 0.1 | -0.03 | – | – | –
O=c1cc(Cc2ccccc2)ccn1O | Active | 0.4 | 0.03 | – | – | –
Cc1cc(Cc2cccc(-c3ccccc3)c2)n(O)c(=O)c1 | Active | 4.22 | 4.2 | 24000 nM | 390 nM | Papp [5]: 1.09 10^-6 cm/s; t1/2 [6]: < 5 min; t1/2 [8]: < 5 min
Cc1cc(C2CCN(C(=O)C(C)C)CC2)n(O)c(=O)c1 | Active | -0.08 | 0.4 | – | – | –
O=c1cc(C2CCCCC2)ccn1O | Active | 0.2 | 0.04 | – | – | –
COc1ccc(Cc2cc(C)cc(=O)n2O)cc1 | Active | 1.23 | 4.04 | – | – | –
Cc1cc(C2CCCCCC2)n(O)c(=O)c1 | Active | 4.15 | 5.09 | 18000 nM | 160 nM | Papp [5]: 5.74 10^-6 cm/s; t1/2 [6]: < 5 min; EC50 (Human alphaherpesvirus 1 [9]): 60 nM; log(activity) (Human alphaherpesvirus 1 [11]): 5.27; log(activity) (Human alphaherpesvirus 1 [12]): 4.67; t1/2 [8]: 8 min
Cc1cc(Cc2cccc(OCc3ccccc3)c2)n(O)c(=O)c1 | Active | 4.04 | 4.4 | 22000 nM | 220 nM | Papp [5]: 1.37 10^-6 cm/s; t1/2 [6]: < 5 min; t1/2 [8]: < 5 min
O=c1cc(-c2ccccc2)cc(Cc2ccccc2)n1O | Active | 2.72 | 5.29 | 18000 nM | 410 nM | –
Cc1cc(Cc2ccc(OCc3ccccc3)cc2)n(O)c(=O)c1 | Active | 4.1 | 4.25 | 19000 nM | 130 nM | Papp [5]: 9.42 10^-7 cm/s; log(activity) (Human alphaherpesvirus 1 [11]): 5.18; log(activity) (Human alphaherpesvirus 1 [12]): 4.74
